# Test results published in US10849906B2, “Use of Akt2 in diagnosis and treatment of tumor” (priority 2015, dated 2020).
# Legend:
# [1] = test system: Akt/FoxO3a/Bim proteins in L-02 cells; assay: Western blot of Akt/FoxO3a/Bim proteins in L-02 cells; assay type: cell-based, human; conditions: pretreated with inhibitor 0.8 μM; FIG. 6B
# Experimental: Protein detection by Western blot: in the examples of the present invention, Akt antibody (rabbit derived), phosphorylated Akt antibody (rabbit derived), FoxO3a antibody (rabbit derived), phosphorylated FoxO3a antibody (rabbit derived) and GAPDH antibody (rabbit derived) and secondary antibodies were all purchased from CST company. […] An appropriate amount of developing solution (DAB 4 mg, 30% hydrogen peroxide 15 μL, 0.01 M Tris-Cl (pH 7.5) 5 mL) was dropped on the PVDF membrane, the image was detected using a bioluminescence image colorimeter and a gel imaging system (Thermo company), and the quantitative analysis of bands was performed using Image Lab software.
# [2] = test system: L-02 human-derived healthy liver cell line; assay: CCK-8 viability of healthy liver cells L-02; conditions: FIG. 6A
# [3] = test system: Daudi cells; assay: Apoptosis by Annexin V-FITC PI double staining, Daudi; assay type: cell-based, human; conditions: compared to the dexamethasone group; FIG. 2K, 4L
# Experimental: (§1) Apoptosis was detected by Annexin V-FITC PI double staining method (flow cytometry kit (FITC, PI double staining), Sangon Biotech (Shanghai) Co., Ltd.)), and the collected cells were washed once with phosphate buffered saline (PBS) (135 mM NaCl, 2.7 mM KCl, 1.5 mM KH2PO4 and 8 mM K2HPO4, pH 7.2); the 4× binding buffer was diluted to a 1× binding buffer with deionized water, then the cells were resuspended with 195 ul of the 1× binding buffer at a cell density of 2-5×10^5/ml; 5 μl of Annexin V-FITC was added to the 195 μl of the cell resuspension and mixed, and incubated in dark at room temperature for 10 minutes; the cells were washed once with 200 μl of the 1× binding buffer, and then resuspended in 190 μl of the 1× binding buffer; 10 μl of propidium iodide (20 μg/ml) was added. A flow cytometry device (Beckman company) was used for detection, and the rate of apoptosis was analyzed using Summit software.
# The cells were cultured in RPMI 1640 complete medium (Gibco company) containing 10% fetal bovine serum (FBS, Gibco company) in an incubator (Thermo company) at 5% CO2 and 37° C. until reaching logarithmic growth phase, then different concentrations of inhibitors and/or dexamethasone/ethanol/DMSO were added to the culture medium, followed by further culturing (for addition of dexamethasone/ethanol/DMSO, for 48 hours, and for addition of inhibitor, for 24 hours), and apoptosis was detected by Annexin V-FITC PI double staining and proteins were detected by Western blot, as described in Example 1. […]
# [4] = test system: Jurkat cells; assay: Apoptosis by Annexin V-FITC PI double staining, Jurkat; assay type: cell-based, human; conditions: for apoptosis of siRNA-transfected Jurkat cells induced by dexamethasone: compared to the dexamethasone group, FIG. 5H
# Experimental: as §1
# (§2) The cells were cultured in RPMI 1640 complete medium (Gibco company) containing 10% fetal bovine serum (FBS, Gibco company) in an incubator (Thermo company) at 5% CO2 and 37° C. until reaching logarithmic growth phase, then different concentrations of inhibitors and/or dexamethasone/ethanol/DMSO were added to the culture medium, followed by further culturing (for addition of dexamethasone/ethanol/DMSO, for 48 hours, and for addition of inhibitor, for 24 hours), and apoptosis was detected by Annexin V-FITC PI double staining and proteins were detected by Western blot, as described in Example 1.
# (§3) As described in Example 3, the cells were cultured in RPMI 1640 complete medium containing 10% fetal bovine serum under 5% CO2 and 37° C. until reaching logarithmic growth phase, and then dexamethasone and different concentrations of Akt inhibitor were added to the culture medium, followed by further culture (for addition of dexamethasone/DMSO, for 48 hours, and for addition of the inhibitor, for 24 hours), the apoptosis was detected by Annexin V-FITC PI double staining method and proteins were detected by Western blot as described in Example 1 as well as the cell viability was detected by CCK-8 method.
# The transfected cells were selected and passaged for 3 to 5 passages after resuscitation, with Interferin™ as transfection reagent, and the transfection procedure was performed in accordance with the instruction of the transfection reagent. In short, the cells of logarithmic growth phase were plated at 2×10^5/well, the cells were replaced with fresh complete medium (free of antibiotics) during transfection, siRNA was diluted with Opti-MEM and added with an appropriate amount of […]in™ and mixed, incubated at room temperature for 10 minutes prior to being added dropwise to the cells, and the cells were harvested at appropriate time. The cells were transfected with green fluorescein-labeled siRNA (FAM-siRNA) (siRNA at a final concentration of 20 μM, 1.25 μl/well), and the transfection efficiency was observed using a fluorescence microscope 24 hours later. The dexamethasone group was added 24 hours after transfection, followed by culture for further 24 hours, and then the cells were collected for observation; and the equal amount of anhydrous ethanol was added to the control group.
# [5] = test system: Akt/FoxO3a/Bim signaling pathway in CCRF-CEM cells; assay: Western blot of Akt/FoxO3a/Bim signaling pathway proteins in CCRF-CEM cells; assay type: cell-based, human; conditions: CCRF-CEM; inhibitors 0.8 μM; FIG. 5A
# Experimental: The control group was not added with any reagents. All experiments were performed in triplicate.
# Protein detection by Western blot: in the examples of the present invention, Akt antibody (rabbit derived), phosphorylated Akt antibody (rabbit derived), FoxO3a antibody (rabbit derived), phosphorylated FoxO3a antibody (rabbit derived) and GAPDH antibody (rabbit derived) and secondary antibodies were all purchased from CST company. The cells were collected in a centrifuge tube and centrifuged at 1000 rpm, the supernatant was discarded and the cells were washed twice with PBS pre-cold at 4° C.; cell lysis buffer (150 mM NaCl, 1% NP-40, 0.1% SDS, 2 μg/ml Aprotinin, 2 μg/ml Leupeptin, 1 mM PMSF, 1.5 mM EDTA, 1 mM sodium vanadate) was added and the cells were lysed on ice for 40 minutes, the cell lysate was centrifuged at 20000 rpm, 4° C. for 15 minutes, and the supernatant was collected; a protein loading buffer for sodium dodecyl sulfate polyacrylamide (SDS-PAGE) gel electrophoresis (1.25 mL 1MTris-HCl (pH6.8), 0.5 g SDS, 25 mg BPB, 2.5 mL glycerol, 5 mL deionized water) was added, followed by boiling for 5 minutes to denature proteins; the loading buffer containing denatured proteins was applied to 10% SDS-PAGE for electrophoresis at 120 V, and then transferred to a PVDF membrane (Sangon Biotech (Shanghai) Co., Ltd.) at 130 V for 1.5 hours; after the membrane transfer was completed, the PVDF membrane was immediately rinsed with a Western washing solution (150 mmol/L NaCl, 50 mmol/L Tris-HCl (pH 7.5)) for 1-2 minutes; added with 5% non-fat milk powder (Shanghai Biotechnology Co., Ltd.), agitated gently and then blocked at room temperature for 60 minutes; a primary antibody diluted appropriately with 5% non-fat milk powder was added, and incubated overnight at room temperature with gentle agitating; the primary antibody was recovered and the membrane was washed three times with the washing solution for 5-10 minutes each; a horseradish peroxidase-labeled secondary antibody diluted appropriately with the Western washing solution was added, and incubated at room temperature for 1 hour with gentle agitating; the secondary antibody was recovered and the membrane was washed three times with the Western washing solution for 5-10 minutes each. An appropriate amount of developing solution (DAB 4 mg, 30% hydrogen peroxide 15 μL, 0.01 M Tris-Cl (pH 7.5) 5 mL) was dropped on the PVDF membrane, the image was detected using a bioluminescence image colorimeter and a gel imaging system (Thermo company), and the quantitative analysis of bands was performed using Image Lab software.
# as §2
# Methods: CCRF-CEM cells were cultured in RPMI 1640 complete medium (Gibco company) containing 10% fetal bovine serum (FBS, Gibco company) in an incubator (Thermo company) at 5% CO2 and 37° C. until reaching logarithmic growth phase, then DMSO, dexamethasone and different inhibitors (DMSO: 0.1%, dexamethasone: 0.1 μM, inhibitors: 0.8 μM) were added to the culture medium, and further cultured (for addition of dexamethasone or DMSO, for 48 hours, and for addition of inhibitors, for 24 hours), and the proteins were detected by Western blot, as described in Example 1.
# [6] = test system: Daudi cells; assay: Cell viability by CCK-8 and combination index, Daudi; assay type: cell-based, human; conditions: B lymphoma cells; as shown in Table 1
# Experimental: as §3
# The inhibitory effect of two drugs (dexamethasone and an inhibitor) alone and in combination on various lymphocyte lines was observed by CCK-8 method (CCK-8 kit), and then the half-inhibitory concentration of each drug was calculated using the median effect equation, and the combination index (CI) of the two drugs used in combination was calculated using CompuSyn software.
# (1) the lymphocytes of logarithmic growth phase were taken and made to a cell suspension of 5×10^4/mL, a blank control group (5 wells), a dexamethasone group (3 wells for each concentration, triplicates), a single inhibitor group (3 wells for each concentration, triplicates), a dexamethasone plus inhibitor group (3 wells for each combined concentration, triplicates) were prepared, 180 μL of the suspension was seeded to each well of a 96-well plate, and incubated for 24 hours in an incubator at 5% CO2 and 37° C.
# Based on the drug resistance of cells, the ratio of two drugs was fixed. The dexamethasone group was cultured for 48 hours while the inhibitor group was cultured for 24 hours.
# (3) 10 μl of CCK-8 was added to each well, and cultured for 2 hours, and the optical density (OD) was measured at 450 nm using an automatic microplate reader, and the proliferation inhibition rate of the drug on cell was calculated.
# (4) the proliferation inhibition rate was calculated according to the following equation: cell proliferation inhibition rate=(1-average OD value in the test group/average OD value in the control group)×100%, and the effect of interaction between the two drugs was analyzed by Chou-Talalay combination index method.
molecule,measurement,setting,value
NC1(Cc2ccc(Cl)cc2)CCN(c2ncnc3[nH]ccc23)CC1 [CCT128930],expressions of p-Akt1 and p-Akt2 in L-02 cells,[1],correspondingly increased
same,damage to liver cells,"[2]; DEX 0.1 μM, inhibitors 0.8 μM",least damage
same,recovery of liver cell activity,[2],gradually recovered after 6 hours of administration
same,liver cell activity,[2]; after six hours of administration,56.1%
same,"apoptosis of Daudi cells, inhibitor in combination with dexamethasone",[3],significantly increase
same,"apoptosis of Jurkat cells, inhibitor in combination with dexamethasone","[4]; compared to the only/single dexamethasone group, FIG. 2F, 4J",significantly increase
same,expression of p-Akt1,[5],increased
same,expression of p-Akt2,[5],increased
same,effect of inhibitor in combination with dexamethasone in B lymphoma cells (in words),[6],additive effect
"Akt1 siRNA: siRNA, SEQ ID NO: 5 GGCCCAACACCUUCAUCAUTT and SEQ ID NO: 6 AUGAUGAAGGUGUUGGGCCTT (chain 1 GGCCCAACACCUUCAUCAUNN; chain 2 AUGAUGAAGGUGUUGGGCCNN; listed as RNA, chemistry not given here)",apoptosis of siRNA-transfected Jurkat cells induced by dexamethasone,[4],not increased
"Akt2 siRNA: siRNA, SEQ ID NO: 7 GGUUCUUCCUCAGCAUCAATT and SEQ ID NO: 8 UUGAUGCUGAGGAAGAACCTT (chain 1 GGUUCUUCCUCAGCAUCAANN; chain 2 UUGAUGCUGAGGAAGAACCNN; listed as RNA, chemistry not given here)",apoptosis of siRNA-transfected Jurkat cells induced by dexamethasone,[4],significantly increased
